Consider 21 molecules from patent publication US20240158383A1, “RIBONUCLEOTIDE REDUCTASE (RNR) INHIBITORS AND USES THEREOF” (Boundless Bio, Inc., priority 2021, published 2024).

pIC50: −log10 of the molar value. A value given as a limit tells only on which side of the number the result lay.

Assay [1] concerns pCHK1 (S345) in Colo320 DM cells. As to the kind of experiment: CHK1 cellular activity (phospho-CHK1 AlphaLisa). It is filed as cell-based, human. The note with it: compound overnight (approximately 16 hours). As to the method:
Phospho-CHK1 cellular activity was measured as a marker of replication stress which is a consequence of RNR inhibition.
Colo320 DM cells (ATCC #CCL-220, derived from human colorectal adenocarcinoma, Dukes' type C) were seeded on a 96-well cell culture treated assay plate at a density of 50,000 cells/well in 200 μL of RPMI-1640 media supplemented with 10% Fetal Bovine Serum and incubated at 37 degrees Celsius overnight. The following day, test compound dilutions were added directly to the plated cells by a Tecan digital dispenser to a final DMSO concentration of <0.5% and incubated at 37 degrees Celsius overnight (approximately 16 hours). The following day all culture media is removed from the cells. 75 μL of 1× AlphaLisa lysis buffer is added to each well and plates are agitated on a shaker for 30 minutes at room temperature. The lysis of cells and detection of pCHK1 (S345) are performed with reagents contained within the AlphaLisa Sure Fire assay kit (Perkin Elmer #ALSU-PCHK1-A) according to the manufacturer's instructions. 10 μL of each lysate was then transferred to a white, 384-well assay plate (Perkin Elmer #6008280). 5 μL of Acceptor mix was then added to each well of lysate in the white, 384-well assay plate and incubated in the dark at room temperature for 60 minutes. 5 μL of Donor mix was then added to each well of the white, 384-well assay plate in subdued light and incubated at room temperature for 60 minutes. Plates are read on an Alpha Technology-compatible plate reader using standard AlphaLisa settings.
(Bead proximity is the source of the signal in Alpha formats.)

In another assay the target is RNR (RNR1:RNR2) (Homo sapiens (Human), UniProt P23921+P31350). Kind of assay: RNR enzyme activity, rapid-fire mass spectrometry (RFMS) assay. It is filed as biochemical. The note with it: [RNR] 50 nM, 1:1 RNR1:RNR2, [CDP] 5 μM, [ATP] 1 mM, 37° C., 45 min. As for the experimental part: A rapid-fire mass spectrometry (RFMS) assay was used to assess RNR enzyme activity using a 384 well plate and a robotic platform.
The plate layout included two validated reference compounds (Triapine (3-AP) and Hydroxyurea (HU)): • A dose response in duplicate; top concentration: 5 μM (3-AP) and 250 μM (HU), semi-log • dilutions. • Spike wells in triplicate randomly spotted at four concentrations: • 250 μM, 100 μM, 30 μM and 2 μM for HU • 5 μM, 2 μM, 0.6 μM and 0.04 μM for 3-AP
First, the multidrop pipes were saturated for 30 minutes with enzymatic solution. Then 30 μL of Stop solution was distributed in column 24. Next, 15 μL of enzyme was distributed in column 1 to 24. Next, a pre-incubation step of 15 minutes at room temperature occurred, followed by distribution of 15 μL of substrate solution (column 1 to 24). Next, the plate was incubated for 45 minutes at 37° C. 30 μL of Stop solution was distributed to columns 1 to 23.
The final parameters for the enzyme reactions were: • Incubation: 37° C., 45 min • [CDP]: 5 μM; [ATP]: 1 mM; [NADPH]: No • [RNR]final: 50 nM with 1:1 (RNR1:RNR2) ratio • Final volume: 30 μL • Stop solution: 6% HCOOH containing 2 μM of 15
The compounds were screened at concentrations from 10 nM to 30 μM.

RNR (RNR1:RNR2), sequence (P23921 whole entry): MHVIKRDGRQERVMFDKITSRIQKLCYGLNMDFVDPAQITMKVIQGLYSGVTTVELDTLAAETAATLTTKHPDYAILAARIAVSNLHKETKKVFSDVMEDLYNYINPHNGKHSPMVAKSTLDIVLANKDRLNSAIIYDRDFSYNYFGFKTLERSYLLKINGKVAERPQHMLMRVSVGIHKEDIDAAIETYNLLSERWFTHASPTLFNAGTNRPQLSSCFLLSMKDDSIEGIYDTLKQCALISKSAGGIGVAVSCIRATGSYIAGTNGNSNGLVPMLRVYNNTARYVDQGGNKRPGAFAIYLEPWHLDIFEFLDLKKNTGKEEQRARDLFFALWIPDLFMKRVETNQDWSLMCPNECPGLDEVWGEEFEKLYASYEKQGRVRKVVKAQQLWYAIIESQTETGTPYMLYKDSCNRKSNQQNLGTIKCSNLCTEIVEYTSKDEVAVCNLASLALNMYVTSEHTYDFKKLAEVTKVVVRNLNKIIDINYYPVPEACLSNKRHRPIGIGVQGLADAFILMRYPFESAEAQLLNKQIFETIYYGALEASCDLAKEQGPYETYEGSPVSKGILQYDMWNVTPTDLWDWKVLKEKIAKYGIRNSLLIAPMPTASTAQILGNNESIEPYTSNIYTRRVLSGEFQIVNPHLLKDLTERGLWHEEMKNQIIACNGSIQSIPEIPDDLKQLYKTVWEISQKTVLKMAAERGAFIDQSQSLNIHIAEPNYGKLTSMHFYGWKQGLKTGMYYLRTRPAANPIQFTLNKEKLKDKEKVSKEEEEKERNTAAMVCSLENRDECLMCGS
RNR (RNR1:RNR2), sequence (P31350 whole entry): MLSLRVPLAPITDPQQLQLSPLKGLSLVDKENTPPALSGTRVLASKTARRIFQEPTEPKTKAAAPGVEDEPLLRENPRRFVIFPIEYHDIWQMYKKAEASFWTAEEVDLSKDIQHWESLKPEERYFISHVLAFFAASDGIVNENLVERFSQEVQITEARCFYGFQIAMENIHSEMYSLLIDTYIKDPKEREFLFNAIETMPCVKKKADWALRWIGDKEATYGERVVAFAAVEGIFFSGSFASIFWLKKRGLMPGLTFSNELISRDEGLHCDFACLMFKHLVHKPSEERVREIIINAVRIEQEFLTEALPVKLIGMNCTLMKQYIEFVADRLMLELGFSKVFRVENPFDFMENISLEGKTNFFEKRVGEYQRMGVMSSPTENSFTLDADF

`Cc1ccc(F)c([C@@H](C)[C@H](NS(=O)(=O)c2ccc(Cl)cc2C#N)c2nn[nH]n2)c1C` [Example 5, 4-chloro-2-cyano-N-((1S2R)-2-(6-fluoro-2,3-dimethylphenyl)-1-(2H-tetrazol-5-yl)propyl)benzenesulfonamide]: the pIC50 (in general, the negative decadic logarithm of the IC50, by convention in mol/L) in assay [1] (Homo sapiens, COLO 320DM, 16 h) is 4.00 to 4.30; at RNR (RNR1:RNR2) it was 6.00 to 7.00.

As for `Cc1ccc(F)c([C@@H](C)[C@H](NS(=O)(=O)c2ccc(Cl)c3c2OCC[C@@]3(C)O)c2nn[nH]n2)c1C` [Example 7, 5-((1S,2R)-1-(((R)-5-chloro-4-hydroxy-4-methylchromane)-8-sulfonamido)-2-(6-fluoro-2,3-dimethylphenyl)propyl)tetrazol-2-ide], the figures for the pIC50 (in assay [1]; against RNR (RNR1:RNR2)) were 4.30 to 4.52 and not below 7.00, respectively.

As for `Cc1ccc(F)c([C@@H](C)[C@H](NS(=O)(=O)C2CCCCC2)c2nn[nH]n2)c1C` [Example 8, N-((1S,4S)-2-(6-fluoro-2,3-dimethylphenyl)-1-(2H-tetraozl-5-yl)propyl)cyclohexanesulfonamide], the pIC50 was 4.00 to 4.30 in assay [1] (Homo sapiens, COLO 320DM, 16 h) and 5.30 to 6.00 at RNR (RNR1:RNR2).

`Cc1ccc(F)c([C@@H](C)[C@H](NS(=O)(=O)c2ccc(Cl)c3c2OCCC3=O)c2nn[nH]n2)c1C` [Example 9, 5-chloro-N-((1S,2R)-2-(6-fluoro-2,3-dimethylphenyl)-1-(2H-tetrazol-5-yl)propyl)-4-oxochromane-8-sulfonamide]: the pIC50 in assay [1] (Homo sapiens, COLO 320DM, 16 h) is 4.00 to 4.30; at RNR (RNR1:RNR2), not below 7.00.

Turning to `Cc1ccc(F)c([C@@H](C)[C@H](NS(=O)(=O)c2ccc(Cl)c3c2OCC[C@@H]3O)c2nn[nH]n2)c1C` [Example 10, (S)-5-chloro-N-((1S,2R)-2-(6-fluoro-2,3-dimethylphenyl)-1-(2H-tetrazol-5-yl)propyl)-4-hydroxychromane-8-sulfonamide], the pIC50 was 4.00 to 4.30 in assay [1] (Homo sapiens, COLO 320DM, 16 h) and not below 7.00 on RNR (RNR1:RNR2).

Turning to `Cc1ccc(F)c([C@@H](C)[C@H](NS(=O)(=O)c2ccc(Cl)c3c2OCC[C@H]3O)c2nn[nH]n2)c1C` [Example 11, (R)-5-chloro-N-((1S,2R)-2-(6-fluoro-2,3-dimethylphenyl)-1-(2H-tetrazol-5-yl)propyl)-4-hydroxychromane-8-sulfonamide], the pIC50 was 4.00 to 4.30 in assay [1] (Homo sapiens, COLO 320DM, 16 h) and not below 7.00 against RNR (RNR1:RNR2).

As for `[2H]C([2H])([2H])[C@@]1(O)CCOc2c(S(=O)(=O)N[C@H](c3nn[nH]n3)[C@H](C)c3c(F)ccc(C)c3C)ccc(Cl)c21` [Example 12, (R)-5-chloro-N-((1S,2R)-2-(6-fluoro-2,3-dimethylphenyl)-1-(2H-tetrazol-5-yl)propyl)-4-hydroxy-4-(methyl-d3)chromane-8-sulfonamide], the pIC50 in assay [1] (Homo sapiens, COLO 320DM, 16 h) was 4.52 to 5.00; at RNR (RNR1:RNR2), not below 7.00.

With `Cc1ccc(F)c([C@@H](C)[C@H](NS(=O)(=O)c2ccc(Cl)cc2CC(=O)O)c2nn[nH]n2)c1C` [Example 18, 2-(5-chloro-2-(N-((1S,2R)-2-(6-fluoro-2,3-dimethylphenyl)-1-(2H-tetrazol-5-yl)propyl)sulfamoyl)phenyl)acetic acid], the negative logarithm of the IC50 (pIC50) in assay [1] (Homo sapiens, COLO 320DM, 16 h) was 4.00 to 4.30; against RNR (RNR1:RNR2) it was not below 7.00.

As to `Cc1ccc(F)c([C@@H](C)[C@H](NS(=O)(=O)c2ccc(Cl)cc2F)c2nn[nH]n2)c1C` [Example 19, 4-chloro-2-fluoro-N-((1S,2R)-2-(6-fluoro-2,3-dimethylphenyl)-1-(2H-tetrazol-5-yl)propyl)benzenesulfonamide], the pIC50 is 4.52 to 5.00 in assay [1] (Homo sapiens, COLO 320DM, 16 h) and 6.00 to 7.00 at RNR (RNR1:RNR2).

Consider `CCc1cc(Cl)ccc1S(=O)(=O)N[C@H](c1nn[nH]n1)[C@H](C)c1c(F)ccc(C)c1C` [Example 20, 4-chloro-2-ethyl-N-((1S,2R)-2-(6-fluoro-2,3-dimethylphenyl)-1-(2H-tetrazol-5-yl)propyl)benzenesulfonamide], for which the pIC50 in assay [1] (Homo sapiens, COLO 320DM, 16 h) was 4.30 to 4.52; against RNR (RNR1:RNR2) it was 6.00 to 7.00.

Consider `Cc1ccc(F)c([C@@H](C)[C@H](NS(=O)(=O)c2ccc(Cl)cc2C(F)(F)F)c2nn[nH]n2)c1C` [Example 21, 4-chloro-N-((1S,2R)-2-(6-fluoro-2,3-dimethylphenyl)-1-(2H-tetrazol-5-yl)propyl)-2-(trifluoromethyl)benzenesulfonamide], for which the negative-log IC50 (pIC50) was 4.00 to 4.30 in assay [1] (Homo sapiens, COLO 320DM, 16 h) and 6.00 to 7.00 on RNR (RNR1:RNR2).

For the molecule `Cc1ccc(F)c([C@@H](C)[C@H](NS(=O)(=O)c2ccc(Cl)cc2CC(=O)N(C)C)c2nn[nH]n2)c1C` [Example 22, 2-(5-chloro-2-(N-((1S,2R)-2-(6-fluoro-2,3-dimethylphenyl)-1-(2H-tetrazol-5-yl)propyl)sulfamoyl)phenyl)-N,N-dimethylacetamide], the pIC50 is 4.30 to 4.52 in assay [1] (Homo sapiens, COLO 320DM, 16 h) and 6.00 to 7.00 against RNR (RNR1:RNR2).

For `Cc1ccc(F)c([C@@H](C)[C@H](NS(=O)(=O)c2ccc(Cl)cc2CC(N)=O)c2nn[nH]n2)c1C` [Example 23, 2-(5-chloro-2-(N-((1S,2R)-2-(6-fluoro-2,3-dimethylphenyl)-1-(2H-tetrazol-5-yl)propyl)sulfamoyl)phenyl)acetamide], the pIC50 is 4.00 to 4.30 in assay [1] (Homo sapiens, COLO 320DM, 16 h) and 6.00 to 7.00 on RNR (RNR1:RNR2).

`Cc1ccc(F)c([C@@H](C)[C@H](NS(=O)(=O)c2ccc(Cl)cc2CC(=O)N2CCCCC2)c2nn[nH]n2)c1C` [Example 24, 4-chloro-N-((1S,2R)-2-(6-fluoro-2,3-dimethylphenyl)-1-(2H-tetrazol-5-yl)propyl)-2-(2-oxo-2-(piperidin-1-yl)ethyl)benzenesulfonamide]: the negative-log IC50 (pIC50) was 4.52 to 5.00 in assay [1] (Homo sapiens, COLO 320DM, 16 h) and 6.00 to 7.00 on RNR (RNR1:RNR2).

Consider `Cc1cc(Cl)ccc1S(=O)(=O)N[C@H](c1nn[nH]n1)[C@H](C)c1c(F)ccc(C)c1C` [Example 25, 4-chloro-N-((1S,2R)-2-(6-fluoro-2,3-dimethylphenyl)-1-(2H-tetrazol-5-yl)propyl)-2-methylbenzenesulfonamide], for which the pIC50 in assay [1] (Homo sapiens, COLO 320DM, 16 h) was 4.52 to 5.00; against RNR (RNR1:RNR2) it was 6.00 to 7.00.

As for `Cc1ccc(F)c([C@@H](C)[C@H](NS(=O)(=O)c2ccc(Cl)cc2CC(=O)N2CCOCC2)c2nn[nH]n2)c1C` [Example 26, 4-chloro-N-((1S,2R)-2-(6-fluoro-2,3-dimethylphenyl)-1-(2H-tetrazol-5-yl)propyl)-2-(2-morpholino-2-oxoethyl)benzenesulfonamide], the pIC50 in assay [1] (Homo sapiens, COLO 320DM, 16 h) was 4.00 to 4.30; against RNR (RNR1:RNR2), 6.00 to 7.00.

Turning to `Cc1ccc(F)c([C@@H](C)[C@H](NS(=O)(=O)c2ccc(Cl)cc2OC(F)F)c2nn[nH]n2)c1C` [Example 27, 4-chloro-2-(difluoromethoxy)-N-((1S,2R)-2-(6-fluoro-2,3-dimethylphenyl)-1-(2H-tetrazol-5-yl)propyl)benzenesulfonamide], the pIC50 in assay [1] (Homo sapiens, COLO 320DM, 16 h) was 4.52 to 5.00; on RNR (RNR1:RNR2), not below 7.00.

As to `Cc1ccc(F)c([C@@H](C)[C@H](NS(=O)(=O)c2c(Cl)cc(Cl)c3c2OCCN3C)c2nn[nH]n2)c1C` [Example 28, 5,7-dichloro-N-((1S,2R)-2-(6-fluoro-2,3-dimethylphenyl)-1-(2H-tetrazol-5-yl)propyl)-4-methyl-3,4-dihydro-2H-benzo[b][1,4]oxazine-8-sulfonamide], the pIC50 was 4.00 to 4.30 in assay [1] (Homo sapiens, COLO 320DM, 16 h) and not below 7.00 at RNR (RNR1:RNR2).

For `Cc1ccc(F)c([C@@H](C)[C@H](NS(=O)(=O)c2ccc(Cl)c3c2OCCN3C)c2nn[nH]n2)c1C` [Example 29, 5-chloro-N-((1S,2R)-2-(6-fluoro-2,3-dimethylphenyl)-1-(2H-tetrazol-5-yl)propyl)-4-methyl-3,4-dihydro-2H-benzo[b][1,4]oxazine-8-sulfonamide], the pIC50 is not below 5.00 in assay [1] (Homo sapiens, COLO 320DM, 16 h) and not below 7.00 against RNR (RNR1:RNR2).

For `Cc1ccc(F)c([C@@H](C)[C@H](NS(=O)(=O)c2ccc(Cl)cc2OC(F)(F)F)c2nn[nH]n2)c1C` [Example 30, 4-chloro-N-((1S,2R)-2-(6-fluoro-2,3-dimethylphenyl)-1-(2H-tetrazol-5-yl)propyl)-2-(trifluromethoxy)benzenesulfonamdie], the pIC50 in assay [1] (Homo sapiens, COLO 320DM, 16 h) is 4.52 to 5.00; at RNR (RNR1:RNR2) it was not below 7.00.

On to `Cc1cc(S(=O)(=O)N[C@H](c2nn[nH]n2)[C@H](C)c2c(F)ccc(C)c2C)c(C)cc1Cl` [Example 31, 4-chloro-N-((1S,2R)-2-(6-fluoro-2,3-dimethylphenyl)-1-(2H-tetrazol-5-yl)propyl)-2,5-dimethylbenzenesulfonamide], for which the pIC50 was 4.00 to 4.30 in assay [1] (Homo sapiens, COLO 320DM, 16 h) and 5.30 to 6.00 on RNR (RNR1:RNR2).
